Assay results as given in patent publication US6153745A, “Relating to mutagenesis of nucleic acids” (Amersham Pharmacia Biotech UK Limited, priority 1995, dated 2000).
Converted amounts (≈) assume the structure as drawn. “Also recorded” adds a separate entry of the source. Where two headings read alike, the source gives them in different places.

Columns and labels:
[1] = test system: E.coli DNA polymerase I Klenow fragment; conditions: 37° C., Purmal et al., 1994, cited from earlier work
[2] = test system: target DNA sequence MH22; assay: PCR mutagenesis of target DNA, cloning and sequencing; format: biochemical; conditions: for Number of point mutations, coding / Number of point mutations, silent / Number of point mutations, total: bases sequenced: dPTP 4093, 8-oxodGTP 5463, dPTP & 8-oxodGTP 3751; for additional (unexpected) mutations found: dPTP: out of 4093 bp, 8-oxodGTP: out of 5463 bp; for linear relation of mutation frequency with number of PCR cycles, up to: equimolar
Method: The four normal dNTPs and the analogues were used in equimolar amounts (500 μM);
Data obtained after different number of PCR cycles have been pooled and figures express percentage of total number of mutations;
Numbers at the top of the Table indicate how many times a particular codon is present in the target sequence. Open squares indicate single point mutations within a particular codon. Filled circles indicate two point mutations within a particular codon. […] Squares in shaded areas indicate silent mutations;
Filled in symbols indicate a single nucleotide change within a codon, open symbols denote two nucleotide changes within the same codon. […] Amino acids are grouped in five classes according to their physico-chemical characteristics: glycine, non-polar, polar, positively charged, and negatively charged.
The first number at the 5'-end of each sequence indicates how many PCR cycles were allowed in the presence of the analogue(s). The second number identifies different clones.
In order to investigate the mutations resulting when dPTP or 8oxodGTP was used in DNA synthesis reactions, PCR reactions were set up in which dPTP was added in equimolar concentrations to the four normal dNTPs. The DNA was amplified for a variable number of cycles and, in order to eliminate the incorporated base analogues, an aliquot of the amplified DNA was used as template in a second PCR amplification in which only the four normal dNTPs were used. The PCR product was subsequently cloned, and some of the clones sequenced (in this way, the pattern of mutation was not influenced by the DNA repair mechanisms of the E. coli host).
DNA amplification reactions were carried out for variable number of cycles, as indicated in FIGS. 11A-11C by the number preceding the point in the clone designation.
For mutagenesis experiments, 10 fmoles of template DNA were amplified using 0.5 μl of AmpliTaq polymerase (5 U/μl, Applied Biosystems) in a 20 μl reaction containing the appropriate sense and antisense […] at 0.5 μM, 2 mM MgCl2, 10 mM Tris-HCl pH8.3, 50 mM KCl, 1 g/l gelatine and dATP, dCTP, dGTP, TTP, dPTP and/or 8-oxodGTP, each at 500 μM. After various cycles (92° C. for 1 min, 55° C. for 1.5 min, 75° C. for 5 min), 1 μl of the amplified material was used in a second PCR in which the same conditions as above were used except that no dPTP or 8-oxodGTP were added to the reaction mixture. The product of the second PCR was digested with BstEII and PstI and cloned into M13VHPCRl vector (Jones et al., 1986 Nature 321, 522-525).

[3] = test system: thermostable Tth DNA polymerase; conditions: Pavlov et al., 1994; cited from earlier work
[4] = target: T1, Taq Polymerase (Thermus aquaticus, UniProt P19821); assay: Substrate for Taq polymerase in PCR, replacing normal dNTPs; format: biochemical
Method: All dNTPs were at 500 μM, except in sample 4 and 7 where dPTP was at 1 mM.
B) The PCR reaction mix included: dATP, dCTP and TTP at 500 μm. Samples 1 to 4 contained dGTP at 50 μM, 25 μM, […] and 6.25 μM respectively, and 8-oxodGTP at 500 μM. Samples 5 to 8 contained the same decreasing amounts of dGTP but no 8-oxodGTP;
Lanes 5 to 8 show the PCR products obtained using the same conditions but in the absence of 8-oxodGTP.

[5] = target: T1, Taq Polymerase; conditions: cited from earlier work
[6] = Singer et al. 1989; cited from earlier work
[7] = target: T1, Taq Polymerase; assay: Steady state kinetics of insertion opposite template A or G, primed synthetic oligonucleotide templates; format: biochemical; conditions: for Relative Efficiency / Vmax /Km / Vmax^(rel): 55° C.
Source text: FIGS. 5A-D show (Top): Plots of initial velocities against [dNTP] for the incorporation by Taq polymerase of dPTP opposite A (A), TTP opposite A (B), dPTP opposite G (C), and dCTP opposite G (D).
In order to compare the relative efficiencies of insertion of dPTP opposite template adenine and guanine residues respectively, we adopted the procedure of Boosalis et al. (Boosalis et al., 1987 J. Biol. Chem. 262, 14689-14696) for the determination of steady state kinetics using one of two primed synthetic oligonucleotide templates (FIG. 5). The ^32 P-labelled primer in each case was extended by the incorporation of dGTP at two positions, followed by dPTP (template 1 and 2), TTP (template 1) or dCTP (template 2). Separation of the products by PAGE followed by quantitation of the radioactivity using a PhosphorImager allowed the determination of the initial velocities (Boosalis et al., 1987). Due to the very high extension rate of Taq polymerase, the kinetic parameters were determined at 55° C. The velocities for the insertion of the particular triphosphate opposite template (Vmax) and Km values (μM) for particular insertions were determined from non-linear regression fitting to the Michaelis-Menten equation.

[8] = target: T2, TEM-1 β-lactamase (Escherichia coli, UniProt P62593); assay: Cefotaxime resistance / hydrolytic activity of TEM-1 β-lactamase and mutants in E. coli; format: cell-based; conditions: wild type TEM-1
T2 construct: mutants cloned in pBC KS+
Method: In this experiment we set to improve the hydrolytic activity of the enzyme TEM-1 β-lactamase on the poorly hydrolysed substrate cefotaxime [minimum inhibitory concentration (MIC)=0.02 μg/ml] by repeated rounds of random mutagenesis and selection on increasing concentrations of the antibiotic. The best mutants selected in the first round are subjected to a second round of mutagenesis and selection in the presence of higher concentration of antibiotic. A stepwise improvement of the efficiency of TEM-1 hydrolytic activity is attained by progressively increasing the selective pressure.
The wild type TEM-1 gene from the plasmid pBR322 was used as a template for PCT amplification in the presence of dPTP and 8-oxodGTP in addition to the four normal dNTPs. The pool of mutants generated was cloned in the vector pBC KS^+ and the library of mutants transformed in E. coli by electroporation. […] Selected mutant were analysed by sequencing and the results of the first round of mutagenesis and selection are shown in Table 3A. A different number of cycles of the mutagenic PCT was used to generate four independent libraries of mutants (libA, libB, libC and libD) each characterised by a different frequency of mutation (0.3% for libA, 0.3% for libB, 1.8% for libC and 6.3% for libD), as determined by sequence analysis of unselected clones. […]

T1 sequence (P19821 whole entry): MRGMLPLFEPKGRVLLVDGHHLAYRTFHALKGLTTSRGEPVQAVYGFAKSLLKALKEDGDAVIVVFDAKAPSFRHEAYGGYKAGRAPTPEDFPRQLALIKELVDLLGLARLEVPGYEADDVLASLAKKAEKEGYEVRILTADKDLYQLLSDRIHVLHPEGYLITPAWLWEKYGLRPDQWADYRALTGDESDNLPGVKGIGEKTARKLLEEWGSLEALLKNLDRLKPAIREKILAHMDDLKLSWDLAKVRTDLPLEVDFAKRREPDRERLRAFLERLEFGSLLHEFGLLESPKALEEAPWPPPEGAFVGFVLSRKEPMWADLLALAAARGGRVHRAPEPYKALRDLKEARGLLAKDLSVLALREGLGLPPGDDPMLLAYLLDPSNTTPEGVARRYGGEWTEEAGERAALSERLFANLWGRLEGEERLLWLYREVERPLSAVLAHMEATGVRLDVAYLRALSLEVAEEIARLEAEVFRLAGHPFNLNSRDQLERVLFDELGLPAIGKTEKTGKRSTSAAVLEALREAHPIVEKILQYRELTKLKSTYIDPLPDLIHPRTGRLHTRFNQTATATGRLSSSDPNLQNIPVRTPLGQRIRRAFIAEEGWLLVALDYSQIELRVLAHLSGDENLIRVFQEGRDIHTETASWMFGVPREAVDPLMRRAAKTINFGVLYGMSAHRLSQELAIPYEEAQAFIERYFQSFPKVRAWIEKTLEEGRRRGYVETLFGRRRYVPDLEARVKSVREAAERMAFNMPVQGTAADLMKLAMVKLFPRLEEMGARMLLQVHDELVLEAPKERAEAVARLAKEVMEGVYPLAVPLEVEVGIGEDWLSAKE
T2 sequence (P62593 24-286 limits assumed): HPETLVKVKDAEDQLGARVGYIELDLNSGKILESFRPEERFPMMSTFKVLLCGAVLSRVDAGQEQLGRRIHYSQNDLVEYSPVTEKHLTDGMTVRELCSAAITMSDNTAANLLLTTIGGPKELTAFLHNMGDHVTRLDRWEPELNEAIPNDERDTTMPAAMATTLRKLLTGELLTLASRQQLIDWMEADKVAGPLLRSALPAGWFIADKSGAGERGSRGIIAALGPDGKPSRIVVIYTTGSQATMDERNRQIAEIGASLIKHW

For `Nc1nc2c(nc(O)n2[C@H]2C[C@H](O)[C@@H](COP(=O)(O)OP(=O)(O)OP(=O)(O)O)O2)c(=O)[nH]1` [8-oxodGTP, 2'-Deoxy-8-hydroxyguanosine 5'-triphosphate], the Km ([1]; read-out: Km for insertion opposite A) is listed as 58 µM, the Km ([1]; read-out: Km for insertion opposite C) is listed as 63 µM and the “types of mutation produced” value [2] is listed as “two transversions (A→C and T→G)”. For the same compound, the “A→C transversions of total mutations” value ([2]; 500 μM, pooled cycles) was 38.8%, the “T→G transversions of total mutations” value ([2]; 500 μM, pooled cycles) was 59% and the codons replaced ([2]; 8 mutant clones, equimolar with dNTPs) was 18 codons. For the same compound, the “Number of point mutations, coding” value [2] was 65, the “Number of point mutations, silent” value [2] was 16 and the “Number of point mutations, total” value [2] was 91. The “additional (unexpected) mutations found” value [2] was “One C→A transversion; also recorded: two A→G transitions and one G→A transition”, the “linear relation of mutation frequency with number of PCR cycles, up to” value ([2]; 500 μM) was ≥ 30 cycles and the A→C transversions rate [3] was “approximately 1%”. The “incorporation into DNA and its extension” value ([4]; normal or limiting dGTP, higher 8-oxodGTP) was “some incorporation into DNA and its extension could be demonstrated”.
In the case of `CON=c1[nH]c(N)nc2c1ncn2[C@H]1C[C@H](O)[C@@H](CO)O1` [K], the “recognition of template DNA containing the analogue by polymerases” value [5] is given as “recognised by polymerases such as Taq polymerase in PCR and Sequenase™ in DNA sequencing”.
In the case of `CCOc1nc(=O)c(C)cn1[C@H]1C[C@H](O)[C@@H](COP(=O)(O)OP(=O)(O)OP(=O)(O)O)O1` [O^2 -ethylthymidine triphosphate], the A→T transversions induced [6] is given as “induces A→T transversions, albeit at a low frequency”.
In the case of `O=C1NC2=NOCCC2=CN1[C@H]1C[C@H](O)[C@@H](CO)O1` [P], the “recognition of template DNA containing the analogue by polymerases” value [5] is given as “recognised by polymerases such as Taq polymerase in PCR and Sequenase™ in DNA sequencing”.
In the case of `Cc1cn([C@H]2C[C@H](O)[C@@H](COP(=O)(O)OP(=O)(O)OP(=O)(O)O)O2)c(=O)[nH]c1=O` [TTP], the “Relative Efficiency” value ([7]; template A) is reported as 1.00, the “Vmax /Km” value ([7]; template A) is reported as 167000 M⁻¹ and the “Vmax^(rel)” value ([7]; template A) is reported as 1.02 ± 0.11.
With `CO/N=C(\C(=O)N[C@@H]1C(=O)N2C(C(=O)O)=C(COC(C)=O)CS[C@H]12)c1csc(N)n1` [cefotaxime] the “minimum inhibitory concentration (MIC)” value [8] was 0.02 µg/mL (≈ 0.0439 µM).
In the case of `Nc1ccn([C@H]2C[C@H](O)[C@@H](COP(=O)(O)OP(=O)(O)OP(=O)(O)O)O2)c(=O)n1` [dCTP], the “Relative Efficiency” value ([7]; template G) is reported as 1.00 and the “Vmax^(rel)” value ([7]; template G) is reported as 1.01 ± 0.09.
For `O=P(O)(O)OP(=O)(O)OP(=O)(O)OC[C@H]1O[C@@H](n2cnc3c(O)ncnc32)C[C@@H]1O` [dITP, deoxyinosine triphosphate], the “substrate quality for Taq polymerase” value ([5]; prior art) is given as “poor substrate for Taq Polymerase and cannot support DNA synthesis when replacing any of the four normal dNTPs”.
In the case of `CON=c1[nH]c(N)nc2c1ncn2[C@H]1C[C@H](O)[C@@H](COP(=O)(O)OP(=O)(O)OP(=O)(O)O)O1` [dKTP, 2-Amino-9-(2-deoxy-β-D-erythropentofuranosyl)-6-methoxyaminopurine 5'-triphosphate], the “replacement of dATP and dGTP in PCR” value ([4]; 350 base pair DNA, 30 cycles) is reported as “could replace dATP and dGTP, but only to a limited extent”.
For `O=C1NC2=NOCCC2=CN1[C@H]1C[C@H](O)[C@@H](COP(=O)(O)OP(=O)(O)OP(=O)(O)O)O1` [dPTP, 6-(2-deoxy-β-D-erythropentofuranosyl)-3,4-dihydro-8H-pyrimido-[4,5-c][1,2]oxazine-7-one 5'-triphosphate], the “incorporation efficiency opposite template adenine versus guanine” value [7] was “approximately three times more efficiently opposite template adenine than guanine residues”, the “recognition by Taq polymerase compared with TTP” value [7] was “virtually indistinguishable from TTP in terms of its recognition by Taq polymerase” and the “Relative Efficiency” value ([7]; template A) was 0.99. For the same compound, the “Vmax /Km” value ([7]; template A) was 165000 M⁻¹, the “Vmax^(rel)” value ([7]; template A) was 0.86 ± 0.06 and the “Relative Efficiency” value ([7]; template G) was 0.11. For the same compound, the “Vmax /Km” value ([7]; template G) was 57000 M⁻¹, the “Vmax^(rel)” value ([7]; template G) was 0.69 ± 0.08 and the mutagenic efficiency compared [2] was “much more efficient mutagen than 8-oxodGTP”. For the same compound, the “types of mutation produced” value [2] was “four transitions (A→G, T→C, G→A and C→T)”, the “A→G mutations of total mutations” value ([2]; 500 μM, pooled cycles) was 46.6% and the “C→T mutations of total mutations” value ([2]; 500 μM, pooled cycles) was 8%. For the same compound, the “G→A mutations of total mutations” value ([2]; 500 μM, pooled cycles) was 9.2%, the “T→C mutations of total mutations” value ([2]; 500 μM, pooled cycles) was 35.5% and the “codons mutated to alternative ones, out of 43 codons present” value ([2]; 12 mutant clones, equimolar with dNTPs) was 40 codons. The “Number of point mutations, coding” value [2] was 318, the “Number of point mutations, silent” value [2] was 66 and the “Number of point mutations, total” value [2] was 384. The “additional (unexpected) mutations found” value [2] was “one T→G and two A→T transversions”, the “linear relation of mutation frequency with number of PCR cycles, up to” value ([2]; 500 μM) was 20 cycles and the “replacement of TTP in PCR” value ([4]; 350 base pair DNA, 30 cycles) was “could completely replace TTP and yield amounts of product comparable to those obtained using the four normal triphosphates”. For the same compound, the “replacement of dCTP in PCR” value ([4]; 350 base pair DNA, 30 cycles) was “could replace dCTP to some extent”.
